Entries after “also recorded” stand apart in the source; their conditions may differ.
Columns and labels:
[1] = Phase I Holter ECG assessment and concentration-QTcF analysis; type: in vivo, human; conditions: for Mean ΔΔQTcF: 100 mg dose group (n=6); for Predicted mean ΔΔQTcF: linear mixed model
Method: Holter ECG recordings of 24 h duration were performed on Day 1 in Parts 1 and 2 of the study using digital 12-lead Holter devices (GI M12R, Manlius, N.Y.) and analyzed in the Quintiles central ECG laboratory. Ten second 12-lead ECGs were extracted in triplicate using Antares ECG extraction software (version 2.15.1.0, AMPS-LLC, New York, N.Y.) for each PK time point (predose and 0.25, 0.5, 1.0, 1.5, 2, 2.5, 3, 4, 5, 6, 8, 12, 16, 24 h postdose) within a −5 to 0 minute window prior to and a 5 minute window after each sampling time point. The quality of extracted ECG snapshots was checked by a Holter Associate/Specialist using the Anatares quality control review interface. The mean QT and RR values from the triplicate ECGs were used to calculate QTcF for each time point.
The dataset consisted of Day 1 ECG and PK data from all subjects in Parts 1 and 2 of the study.
Model derived predicted mean ΔΔQTcF was calculated for the geometric mean Cmax of each dose cohort. Two-sided 90% CIs of the estimate were determined using bootstrapping (1,000 resamples). By-time point analysis of actual values and change from baseline was performed for QTcF. Mean ΔΔQTcF with an associated 90% CI was summarized by time point for each dose cohort.

[2] = Phase II RMS study: safety (adverse events, laboratory) over 24 weeks; type: in vivo
Method: The assessing Investigator and central MRI reader were treatment blinded.
Safety profile of the IMP was assessed through the recording, reporting and analysis of baseline medical conditions; AEs; physical examination findings including vital signs, ECGs, and laboratory tests (including Ig and subclass concentration and B, NK, and T cell counts). Comprehensive assessment of any apparent toxicity experienced by each subject was performed from the time of giving informed consent and throughout the trial. The Investigator was to report any AEs, whether observed by the Investigator or reported by the subject.
Adverse Event: An AE was any untoward medical occurrence in a subject or clinical investigation subject administered a pharmaceutical product, regardless of causal relationship with this treatment. An AE could therefore be any unfavorable and unintended sign (including an abnormal laboratory finding), symptom, or disease temporally associated with the use of a medicinal product, whether or not considered related to the medicinal product.
The Investigator was required to grade the severity or toxicity of each AE. Investigators referenced the National Cancer Institute-Common Terminology Criteria for AEs (NCI-CTCAE), Version 4.03 (publication date: 14 Jun. 2010) a descriptive terminology provided in the Manual of Procedures that can be used for AE reporting.
A general grading (severity/intensity; hereafter referred to as severity) scale was provided at the beginning of the above referenced document, and specific event grades were also provided. Only if a particular AE's severity was not specifically graded by the guidance document, then the Investigator was to use the general NCI-CTCAE definitions of Grade 1 through Grade 5 following his or her best medical judgment. The 5 general grades are: • Grade 1 or Mild • Grade 2 or Moderate • Grade 3 or Severe • Grade 4 or Life-threatening • Grade 5 or Death.
Serious Adverse Events: An SAE is any untoward medical occurrence that at any dose: • Results in death. • Is life-threatening. (Note: The term “life-threatening” refers to an event in which the subject is at risk of death at the time of the event, not an event that hypothetically might have caused death if it was more severe) • Requires inpatient hospitalization or prolongs an existing hospitalization, except in the case of hospitalizations due to protocol-defined relapses. • Results in persistent or significant disability or incapacity. • Is a congenital anomaly or birth defect. • Is otherwise considered to be medically important.

C=CC(=O)N1CCC(CNc2ncnc(N)c2-c2ccc(Oc3ccccc3)cc2)CC1 [Evobrutinib, 1-(4-(((6-amino-5-(4-phenoxyphenyl)pyrimidin-4-yl)amino)methyl)piperidin-1-yl)prop-2-en-1-one]
Geometric mean Cmax ([1]; 25 mg dose group, Day 1, Parts 1 and 2): 86.48 ng/mL
Geometric mean Cmax ([1]; 25 mg dose group, Day 1, Parts 1 and 2, listed as evobrutinib): 86.5 ng/mL
Geometric mean Cmax ([1]; 50 mg dose group, Day 1): 233.9 ng/mL
Geometric mean Cmax ([1]; 75 mg dose group, Day 1): 253.9 ng/mL
Mean ΔΔQTcF ([1]; 6 h post-dose): 7.1 ms
Mean ΔΔQTcF ([1]; 8 h post-dose): 5.6 ms
Mean ΔΔQTcF ([1]; 12 h post-dose): 7.2 ms
Geometric mean Cmax ([1]; 100 mg dose group, Day 1): 308.6 ng/mL
Geometric mean Cmax ([1]; 200 mg dose group, Day 1, Parts 1 and 2): 689.2 ng/mL
Geometric mean Cmax ([1]; 350 mg dose group, Day 1): 845.9 ng/mL
Geometric mean Cmax ([1]; 500 mg dose group, Day 1): 1512.3 ng/mL
Geometric mean Cmax ([1]; 500 mg dose group, Day 1, listed as evobrutinib): 1,512 ng/ml
Subjects with change from baseline in QTcF between 30 ms and 60 ms ([1]; 2 of 81 subjects, both in the 200 mg dose group): 2.5%
Change from baseline in QTcF ([1]; all ECGs): ≤ 60 ms
Mean ΔΔQTcF over the range of doses evaluated ([1]; all time points, with the exception of the 100 mg dose group): < 5 ms
Absolute QTcF value ([1]; any dose group, any time point): ≤ 450 ms
Predicted mean ΔΔQTcF ([1]; at geometric mean Cmax of 25 mg dose group): -0.78 ms
Predicted mean ΔΔQTcF ([1]; at geometric mean Cmax of 50 mg dose group): -0.82 ms
Predicted mean ΔΔQTcF ([1]; at geometric mean Cmax of 75 mg dose group): -0.82 ms
Predicted mean ΔΔQTcF ([1]; at geometric mean Cmax of 100 mg dose group): -0.84 ms
Predicted mean ΔΔQTcF ([1]; at geometric mean Cmax of 200 mg dose group): -0.94 ms
Predicted mean ΔΔQTcF ([1]; at geometric mean Cmax of 350 mg dose group): -0.98 ms
Predicted mean ΔΔQTcF ([1]; at geometric mean Cmax of 500 mg dose group): -1.16 ms
Change from baseline in HR, PR and QRS values post-dose ([1]; categorical analysis): no clinically significant change from baseline
Slope of the relationship between placebo-adjusted ΔQTcF and concentration ([1]; linear mixed-effects model, P=0.86): −0.00027 ms/ng per mL
Subjects with treatment-emergent T wave morphological abnormalities ([1]; one in the 50 mg and one in the 100 mg dose group): two
Effect on QTcF / exposure-effect relationship ([1]; single doses up to 500 mg): did not prolong QTcF; also recorded: No evidence of a significant exposure-effect relationship; also recorded: no prolongation of QTcF
Hysteresis between plasma concentration and ΔQTcF ([1]; statistical test based on ΔΔQTcF): no evidence of hysteresis
Deaths or additional emerging safety signals ([2]; 24 weeks): no deaths or additional emerging safety signals
TEAEs of grade 4 or 5 ([2]; human, in vivo, 24 weeks): no TEAEs of grade 4 or 5
Hematological abnormalities, such as lymphopenia ([2]; in vivo): None of the three evobrutinib doses were associated with hematological abnormalities, such as lymphopenia
Hy's Law cases among Grade 3 transaminase elevations ([2]; in vivo): no Hy's Law cases
Infection rates versus placebo ([2]; in vivo): lower than those with placebo
